Experimental data: ChEMBL document CHEMBL5523670, “Structure activity relationship and target prediction for ABX464 analogues in Caenorhabditis elegans” (Bioorg Med Chem, 2024)

Key:
Caenorhabditis elegans [1] = assay: Anthelmintic activity against Caenorhabditis elegans N2 Bristol assessed as reduction in motility of young adults measured for 40 hrs; format: functional, organism-based; details: for IC50: Caenorhabditis elegans, N2 Bristol, 40 h
Caenorhabditis elegans [2] = assay: Anthelmintic activity against Caenorhabditis elegans N2 Bristol assessed as maximum inhibition of motility measured for 40 hrs; format: functional
[3] = Mitotoxicity against human HepG2 cells assessed as reduction in cell viability measured for 48 hrs by crystal violet staining based analysis; format: toxicity
[4] = Cytotoxicity against human HepG2 cells measured for 48 hrs by crystal violet staining based analysis; format: toxicity, cell-based

SMILES | IC50 (Caenorhabditis elegans [1]) [µM] | other results
FC(F)(F)c1ccc(Nc2ccc3cccc(Cl)c3n2)nc1 | > 40 | 
FC(F)(F)Oc1ccc(Nc2cc(Cl)c3ccccc3n2)cc1 | 11 | 
FC(F)(F)Oc1ccc(Nc2ccc3cccc(Cl)c3n2)cc1Cl | > 40 | 
FC(F)(F)Oc1ccccc1Nc1ccc2cccc(Cl)c2n1 | > 40 | 
Fc1cccc2ccc(Nc3ccc(OC(F)(F)F)cc3)nc12 | 18 | Imax (Caenorhabditis elegans [2]): 69%
FC(F)(F)Oc1ccc(Nc2ccc3c(Cl)cccc3n2)cc1 | 7.1 | CC50 at 48 h [3]: ≥ 40 µM; CC50 at 48 h [4]: ≥ 40 µM
Fc1ccc(Nc2ccc3cccc(Cl)c3n2)cc1 | 16 | Imax (Caenorhabditis elegans [2]): 57%
Cc1cccc(Nc2ccc3cccc(Cl)c3n2)c1 | 22 | 
Fc1cccc(Nc2ccc3cccc(Cl)c3n2)c1 | 29 | 
Clc1cccc2ccc(Nc3cccc(-c4ccccc4)c3)nc12 | > 40 | 
FC(F)(F)Oc1ccc(Nc2ccc3cccc(Cl)c3n2)cc1 [OBEFAZIMOD] | 7.2 | Imax (Caenorhabditis elegans [2]): 94%
FC(F)(F)Oc1ccc(Nc2ccc3cccc(-c4ccccc4)c3n2)cc1 | > 40 | 
FC(F)(F)Oc1ccc(Nc2ccc3ccccc3n2)cc1 | > 40 | 
FC(F)(F)c1cc(Nc2ccc3cccc(Cl)c3n2)ccc1Cl | 7 | Imax (Caenorhabditis elegans [2]): 82%
FC(F)(F)Oc1ccc(Nc2nc3ccccc3cc2Cl)cc1 | > 40 | 
FC(F)(F)Oc1cccc(Nc2ccc3cccc(Cl)c3n2)c1 | > 40 | 
FC(F)(F)c1ccc(Nc2ccc3cccc(Cl)c3n2)cc1C(F)(F)F | > 40 | 
N#Cc1cccc(Nc2ccc3cccc(Cl)c3n2)c1 | > 40 | 
COc1cccc(Nc2ccc3cccc(Cl)c3n2)c1 | 21 | 
Clc1ccc(Nc2ccc3cccc(Cl)c3n2)cc1 | 14 | Imax (Caenorhabditis elegans [2]): 58%
Fc1ccccc1Nc1ccc2cccc(Cl)c2n1 | > 40 | 
COc1ccccc1Nc1ccc2cccc(Cl)c2n1 | > 40 | 
Cc1cccc2ccc(Nc3ccc(OC(F)(F)F)cc3)nc12 | > 40 | 
COc1ccc(Nc2ccc3cccc(Cl)c3n2)cc1 | > 40 | 

SMILES | IC50 (Caenorhabditis elegans [1]) [µM] | other results
Clc1cccc2ccc(Nc3ccc(-c4ccccc4)cc3)nc12 | > 40 | 
FC(F)(F)c1ccc(Nc2ccc3cccc(Cl)c3n2)cc1 |  | CC50 at 48 h [3]: ≥ 40 µM; CC50 at 48 h [4]: ≥ 40 µM
FC(F)(F)c1ccccc1Nc1ccc2cccc(Cl)c2n1 | > 40 | 
FC(F)(F)Oc1ccc(Oc2ccc3cccc(Cl)c3n2)cc1 | > 40 | 
Clc1cccc(Nc2ccc3cccc(Cl)c3n2)c1 | 11 | CC50 at 48 h [3]: ≥ 40 µM; CC50 at 48 h [4]: ≥ 40 µM
Clc1cccc2ccc(Nc3ccccc3)nc12 | 11 | Imax (Caenorhabditis elegans [1]; time 40 hrs): 52%
N#Cc1ccc(Nc2ccc3cccc(Cl)c3n2)cc1 | > 40 | 
FC(F)(F)Oc1ccc(Nc2ccccn2)cc1 | > 40 | 
Cc1ccc(Nc2ccc3cccc(Cl)c3n2)cc1 | 28 | Imax (Caenorhabditis elegans [2]): 59%
CO/N=C1\C[C@]2(C[C@@H]3C[C@@H](C/C=C(\C)C[C@@H](C)/C=C/C=C4\CO[C@@H]5[C@H](O)C(C)=C[C@@H](C(=O)O3)[C@]45O)O2)O[C@H](/C(C)=C/C(C)C)[C@H]1C [MOXIDECTIN] | 0.1 | 
Clc1ccccc1Nc1ccc2cccc(Cl)c2n1 | > 40 | 
Clc1cccc2ccc(Nc3ccccc3-c3ccccc3)nc12 | > 40 | 
C[C@](C#N)(COc1cc(C#N)ccc1C(F)(F)F)NC(=O)c1ccc(SC(F)(F)F)cc1 [MONEPANTEL] | 0.03 | 
FC(F)(F)Oc1ccc(Nc2ccc3cc(Cl)ccc3n2)cc1 | > 40 | 
FC(F)(F)Oc1ccc(Nc2ccc3cccc(Br)c3n2)cc1 | 5.9 | Imax (Caenorhabditis elegans [2]): 67%
FC(F)(F)c1ccc(Nc2ccc3cccc(Cl)c3n2)cn1 | > 40 | 
COc1cccc2ccc(Nc3ccc(OC(F)(F)F)cc3)nc12 | > 40 | 
Oc1ccc(Nc2ccc3cccc(Cl)c3n2)cc1 | > 40 | 
Clc1ccc(Nc2ccc3cccc(Cl)c3n2)cc1Cl | 6.9 | Imax (Caenorhabditis elegans [2]): 100%; CC50 at 48 h [3]: ≥ 40 µM; CC50 at 48 h [4]: ≥ 40 µM
N#Cc1cccc2ccc(Nc3ccc(OC(F)(F)F)cc3)nc12 | > 40 | 
FC(F)(F)c1cccc(Nc2ccc3cccc(Cl)c3n2)c1 | 3.2 | Imax (Caenorhabditis elegans [2]): 55%
N#Cc1ccccc1Nc1ccc2cccc(Cl)c2n1 | > 40 | 
CN(c1ccc(OC(F)(F)F)cc1)c1ccc2cccc(Cl)c2n1 | 78 | Imax (Caenorhabditis elegans [2]): 81%; CC50 at 48 h [3]: ≥ 40 µM; CC50 at 48 h [4]: ≥ 40 µM
